Assays:
rice [1] = test: Stimulating action on rice, general statement; settings: in vivo
Alisma sp. = test: Outdoor infestation degree in rice plots (Example 15); type: in vivo; settings: 36 days
Protocol: (§1) In the province of Novara, Italy, a test was performed outdoors in clay soil. For each treatment, a 600 m^2 plot provided with independent water feed was prepared. After soil working and leveling, the treatment was effected on Apr. 23, 1970, using formulations in emulsifiable oils of M3432 and of molinate, sprayed by means of mechanical devices. Only the plot treated with molinate was harrowed just after treatment in order to incorporate the product and to avoid any losses of same due to volatilization. Immediately afterwards, the plots were flooded to a water level of 10-12 cm.
(§2) A clear confirmation of the efficiency of M3432 towards Echinocloa spp. was obtained outdoors, where the test was carried out under conditions which are characteristic of Italian rice growing. The experimental conditions are described in Example 10.

Echinocloa spp. = test: as above; type: in vivo; settings: for Infestation degree, plants per 10 square meters: 2 months
Protocol: as §1, §2

Scirpus sp. = test: as above; type: in vivo; settings: 36 days
Protocol: as §1, §2

rice [2] = test: Hothouse test on rice in flooded culture, 66 days (Example 9b); type: in vivo, rice cv. RIBE
Source text: A test was arranged in a hothouse on a set of boxes having a 1,000 cm^2 internal surface. 18 Kg. of sieved rice field earth were put into each box. After leveling, the earth surfaces of each of a set of six boxes were uniformly sprayed with hydroacetone solutions containing, respectively, 0, 0.5, 0.75, 1, 1.25, and 1.5% of M3432. 20 Cc. of solution was sprayed into each box, corresponding to 0, 10, 15, 20, 25, and 30 kg./ha., respectively. Each box was flooded with a 10 cm. water layer measured from the earth surface. The sowing was carried out immediately afterwards with a pre-germinated (cv) RIBE rice seed, employing a quantity of 40 seeds per box.
A second test was carried out in a hothouse, employing the identical method and under the identical conditions as in Example 9a.

Rice plants = test: Open field test on rice, periodical checks of the plots (Example 10); type: in vivo, rice cv. RIBE; settings: two months
Protocol: as §1
(§3) Pre-germinated cv. RIBE rice was mechanically sowed broadcast on Apr. 25, 1970.
Periodical checks were carried out on the four plots. […]

rice [3] = test: Further test on rice in submerged culture at high doses (Example 8); type: in vivo; settings: 33 days
Protocol: Into a set of cylindrical pots having a 200 cm^2 internal surface, sieved rice field earth in a quantity of 1 kg. per pot was introduced. After leveling and wetting with 200 cc. of water, the earth surface of the pots was uniformly sprayed with hydroacetone solutions containing, respectively, 0, 0.2, 0.3, and 0.4% active product (a.p.). 4 Ml. of the solution were sprayed onto each pot, so that the amount of active product in a set of four pots was 0, 4, 6, and 8 kg./ha., respectively. Immediately after spraying, each pot was filled with water to a level of 7 cm. over the soil surface. Thereafter, the sowing was carried out at the rate of 15 pre-germinated rice seeds per pot. Three repetitions were performed for each treatment. The pots were kept in an air-conditioned atmosphere with a daily temperature variation between 10° and 25°C and a 14 hour per day light period. After 24 days, the percentage of sprouted plants and the length of the shoot were recorded.
In view of the foregoing results, a further test was conducted according to the methodology of Example 7. During such test, M3432 was employed in quantities of 10, 20, and 30 kg./ha. The results were gathered 33 days after the treatments.

grass (Echinocloa spp.) = test: Residual activity, second sowing with grass 24 days after treatment (Example 14); type: in vivo; settings: additional 24 days
Protocol: The same method described in Example 9 was followed, the only variation being in sowing Echinocloa spp. (40 slightly pregerminated seeds per box) instead of rice.
After the Echinocloa spp. plants were killed, a second sowing with grass was carried out in the same boxes, 24 days after the treatment, employing 20 slightly pre-germinated seeds per box.

rice [4] = test: Open field test on rice, biometric controls (Example 10); type: in vivo, rice cv. RIBE; settings: 36 days
Protocol: as §1, §3
36 Days after the treatment, 50 rice plants were taken at random from each plot and subjected to biometric controls.

rats = settings: os, literature values; cited from earlier work

Question: For CCC(C)N(C(=O)SCc1ccccc1)C(C)CC (stereo not shown) [M3432, S-benzyl-N,N-disec.butylthiocarbamate], which Malformations of rice (rice [1]) is on record?
Answer: no malformations are noticed

Question: What about the Infestation degree (Alisma sp.; 4 kg./ha.) of the same compound?
Answer: low (low = 0.5-1 plants per m^2)

Question: What about the Infestation degree (Alisma sp.; 6 kg./ha.) of the same compound?
Answer: low (low = 0.5-1 plants per m^2)

Question: What about the “Infestation degree, plants per 10 square meters” value (Echinocloa spp.; 4 kg./ha.) of the same compound?
Answer: 0.25 no.

Question: What about the “Infestation degree, plants per 10 square meters” value (Echinocloa spp.; 6 kg./ha.) of the same compound?
Answer: 0.33 no.

Question: What about the Infestation degree (Scirpus sp.; 4 kg./ha.) of the same compound?
Answer: low (low = 0.5-1 plants per m^2)

Question: And the Infestation degree (Scirpus sp.; 6 kg./ha.)?
Answer: low (low = 0.5-1 plants per m^2)

Question: And the Main root (rice [2]; 10 kg./ha.)?
Answer: 12.64 cm.

Question: What about the “Roots, weight on dry basis” value (rice [2]; 10 kg./ha.) of the same compound?
Answer: 5.550 g. per 100 plant

Question: And the Secondary roots (rice [2]; 10 kg./ha.)?
Answer: 12.20 No.

Question: What about the Shoot (rice [2]; 10 kg./ha.) of the same compound?
Answer: 16.74 cm.

Question: And the “Shoot, weight on dry basis” value (rice [2]; 10 kg./ha.)?
Answer: 8.000 g. per 100 plant

Question: What about the Sprouted plants (rice [2]; 10 kg./ha.) of the same compound?
Answer: 45.0%

Question: What about the Main root (rice [2]; 15 kg./ha.) of the same compound?
Answer: 13.54 cm.

Question: What about the “Roots, weight on dry basis” value (rice [2]; 15 kg./ha.) of the same compound?
Answer: 6.800 g. per 100 plant

Question: What about the Secondary roots (rice [2]; 15 kg./ha.) of the same compound?
Answer: 13.30 No.

Question: What about the Shoot (rice [2]; 15 kg./ha.) of the same compound?
Answer: 18.16 cm.

Question: What about the “Shoot, weight on dry basis” value (rice [2]; 15 kg./ha.) of the same compound?
Answer: 11.800 g. per 100 plant

Question: What about the Sprouted plants (rice [2]; 15 kg./ha.) of the same compound?
Answer: 45.0%

Question: What about the Main root (rice [2]; 20 kg./ha.) of the same compound?
Answer: 17.16 cm.

Question: What about the “Roots, weight on dry basis” value (rice [2]; 20 kg./ha.) of the same compound?
Answer: 10.480 g. per 100 plant

Question: And the Secondary roots (rice [2]; 20 kg./ha.)?
Answer: 21.00 No.

Question: What about the Shoot (rice [2]; 20 kg./ha.) of the same compound?
Answer: 26.00 cm.

Question: What about the “Shoot, weight on dry basis” value (rice [2]; 20 kg./ha.) of the same compound?
Answer: 18.050 g. per 100 plant

Question: And the Sprouted plants (rice [2]; 20 kg./ha.)?
Answer: 60.0%

Question: And the Main root (rice [2]; 25 kg./ha.)?
Answer: 10.26 cm.

Question: And the “Roots, weight on dry basis” value (rice [2]; 25 kg./ha.)?
Answer: 4.250 g. per 100 plant

Question: What about the Secondary roots (rice [2]; 25 kg./ha.) of the same compound?
Answer: 10.05 No.

Question: And the Shoot (rice [2]; 25 kg./ha.)?
Answer: 15.00 cm.

Question: And the “Shoot, weight on dry basis” value (rice [2]; 25 kg./ha.)?
Answer: 6.875 g. per 100 plant

Question: What about the Sprouted plants (rice [2]; 25 kg./ha.) of the same compound?
Answer: 40.0%

Question: And the Main root (rice [2]; 30 kg./ha.)?
Answer: 8.21 cm.

Question: What about the “Roots, weight on dry basis” value (rice [2]; 30 kg./ha.) of the same compound?
Answer: 2.800 g. per 100 plant

Question: And the Secondary roots (rice [2]; 30 kg./ha.)?
Answer: 8.00 No.

Question: What about the Shoot (rice [2]; 30 kg./ha.) of the same compound?
Answer: 14.50 cm.

Question: And the “Shoot, weight on dry basis” value (rice [2]; 30 kg./ha.)?
Answer: 5.050 g. per 100 plant

Question: And the Sprouted plants (rice [2]; 30 kg./ha.)?
Answer: 40.0%

Question: What about the Average height (Rice plants; 4 kg./ha.) of the same compound?
Answer: about 60 cm.

Question: What about the Average height (Rice plants; 6 kg./ha.) of the same compound?
Answer: about 60 cm.

Question: And the Main root (rice [3]; 10 kg./ha.)?
Answer: 11.3 cm.

Question: And the Secondary roots (rice [3]; 10 kg./ha.)?
Answer: 4.4 number per plant

Question: And the Shoot (rice [3]; 10 kg./ha.)?
Answer: 19.97 cm.

Question: What about the Sprouted plants (rice [3]; 10 kg./ha.) of the same compound?
Answer: 71.1%

Question: And the Main root (rice [3]; 20 kg./ha.)?
Answer: 10.6 cm.

Question: What about the Secondary roots (rice [3]; 20 kg./ha.) of the same compound?
Answer: 5.1 number per plant

Question: What about the Shoot (rice [3]; 20 kg./ha.) of the same compound?
Answer: 20.9 cm.

Question: And the Sprouted plants (rice [3]; 20 kg./ha.)?
Answer: 77.7%

Question: And the Main root (rice [3]; 30 kg./ha.)?
Answer: 11.1 cm.

Question: And the Secondary roots (rice [3]; 30 kg./ha.)?
Answer: 5.4 number per plant

Question: And the Shoot (rice [3]; 30 kg./ha.)?
Answer: 23.4 cm.

Question: What about the Sprouted plants (rice [3]; 30 kg./ha.) of the same compound?
Answer: 80.0%

Question: What about the Shoot (grass (Echinocloa spp.); 2 kg./ha.) of the same compound?
Answer: 26.5 cm.

Question: And the Stand (grass (Echinocloa spp.); 2 kg./ha.)?
Answer: 100%

Question: What about the Shoot (grass (Echinocloa spp.); 4 kg./ha.) of the same compound?
Answer: 27.0 cm.

Question: And the Stand (grass (Echinocloa spp.); 4 kg./ha.)?
Answer: 65%

Question: What about the Shoot (grass (Echinocloa spp.); 6 kg./ha.) of the same compound?
Answer: 0 cm.

Question: And the Stand (grass (Echinocloa spp.); 6 kg./ha.)?
Answer: 0%

Question: And the Shoot (grass (Echinocloa spp.); 8 kg./ha.)?
Answer: 0 cm.

Question: What about the Stand (grass (Echinocloa spp.); 8 kg./ha.) of the same compound?
Answer: 0%

Question: What about the Main root (rice [4]; 4 kg./ha.) of the same compound?
Answer: 9.29 cm.

Question: And the “Roots, average weight per plant on dry basis” value (shortened to “Roots … per plant on dry basis”) (rice [4]; 4 kg./ha.)?
Answer: 2.431 g

Question: What about the Secondary roots (rice [4]; 4 kg./ha.) of the same compound?
Answer: 9.64 no.

Question: What about the Shoot (rice [4]; 4 kg./ha.) of the same compound?
Answer: 29.22 cm.

Question: And the “Shoot, average weight per plant on dry basis” value (“Shoot … per plant on dry basis” below) (rice [4]; 4 kg./ha.)?
Answer: 4.073 g

Question: What about the “Total, average weight per plant on dry basis” value (from here on “Total … per plant on dry basis”) (rice [4]; 4 kg./ha.) of the same compound?
Answer: 6.504 g

Question: And the Main root (rice [4]; 6 kg./ha.)?
Answer: 10.19 cm.

Question: What about the “Roots … per plant on dry basis” value (rice [4]; 6 kg./ha.) of the same compound?
Answer: 3.123 g

Question: And the Secondary roots (rice [4]; 6 kg./ha.)?
Answer: 10.42 no.

Question: What about the Shoot (rice [4]; 6 kg./ha.) of the same compound?
Answer: 30.17 cm.

Question: What about the “Shoot … per plant on dry basis” value (rice [4]; 6 kg./ha.) of the same compound?
Answer: 4.209 g

Question: What about the “Total … per plant on dry basis” value (rice [4]; 6 kg./ha.) of the same compound?
Answer: 7.341 g

Question: For CCSC(=O)N1CCCCCC1 [Molinate, ethyl-1-hexamethylene-imino-carbothiolate, reference compound], which Infestation degree (Alisma sp.; 4 kg./ha.) is on record?
Answer: moderate (moderate = 1 - 4 plants per m^2)

Question: What about the “Infestation degree, plants per 10 square meters” value (Echinocloa spp.; 4 kg./ha.) of the same compound?
Answer: 1-2 no.

Question: And the Infestation degree (Echinocloa spp.; 4 kg./ha., 36 days)?
Answer: almost nil (almost nil = 0.1 plants per m^2)

Question: And the Infestation degree (Scirpus sp.; 4 kg./ha.)?
Answer: moderate (moderate = 1 - 4 plants per m^2)

Question: And the Average height (Rice plants; 4 kg./ha.)?
Answer: 35-45 cm.

Question: What about the Rice plants appearance (Rice plants; 4 kg./ha.) of the same compound?
Answer: normal

Question: What about the “Stand (number of tillers per unit of area)” value (Rice plants; 4 kg./ha.) of the same compound?
Answer: normal

Question: What about the “Acute toxicity LD50” value (rats) of the same compound?
Answer: 500 to 725 mg/kg

Question: What about the Main root (rice [4]; 4 kg./ha.) of the same compound?
Answer: 7.67 cm.

Question: What about the “Roots … per plant on dry basis” value (rice [4]; 4 kg./ha.) of the same compound?
Answer: 1.866 g

Question: And the Secondary roots (rice [4]; 4 kg./ha.)?
Answer: 9.06 no.

Question: What about the Shoot (rice [4]; 4 kg./ha.) of the same compound?
Answer: 25.72 cm.

Question: What about the “Shoot … per plant on dry basis” value (rice [4]; 4 kg./ha.) of the same compound?
Answer: 3.257 g

Question: What about the “Total … per plant on dry basis” value (rice [4]; 4 kg./ha.) of the same compound?
Answer: 5.123 g

Reference: US3930838A, “S-benzyl-N,N-disec-butylthiocarbamate and its use as a rice field herbicide and a rice growth stimulant” (priority 1970, dated 1976)
